Results on six compounds are retold here after patent US20120184747A1, “ANILINE COMPOUND” (UBE INDUSTRIES, LTD., priority 2009, published 2012).

Where a name gives a salt, the structure may show the parent alone. Read-outs that look alike come from different tables or passages of the source.

Assay [1] has as its system isolated guinea pig trachea. The experiment in a line: Isolated guinea pig trachea relaxation test. The following applies: Cavia porcellus, read-out: Contraction-inhibiting rate (%). On the procedure: The tracheas were isolated from guinea pigs (Hartley, male, age 7 to 9 weeks, supplier: Nippon SLC) followed by cutting as rings containing cartilage. The trachea specimens were suspended in Krebs solution containing 3 μM indomethacin while applying a load of 1.0 g, and changes in tension were measured through an FD pickup (TB-611T, Nippon Kohden). […] After causing the trachea specimen to contract by electrical field stimulation (SEN-3401, Nippon Kohden) and the contractive reaction being stable, a test compound dissolved in dimethylsulfoxide was added to cause the trachea specimen to relax. The inhibiting rate to the contractive reaction before adding the compound was calculated.

Assay [2] has as its target T1, human EP2 receptor (Homo sapiens, UniProt P43116).
T1 construct: host or cells: HEK293 cells
Briefly: Measurement of EP2 agonist activity (cAMP in HEK293 cells expressing human EP2 receptor). It counts as cell-based. The following applies: cAMP increase in HEK293 cells expressing human EP2 receptor, 30 minutes. On the procedure: Measurement of EP2 agonist activity was carried out in compliance with the method of Wilson et al. (European Journal of Pharmacology, 501, 49 (2004)). HEK293 cells expressing human EP2 receptor (ES-562-C, available from Euroscreen) were cultured in MEM medium containing 10% FBS and seeded at 2×10^4 cells per well of a 96-well plate. On the following day, the medium was replaced with serumfree MEM medium containing 3-isobutyl-1-methylxanthine (final concentration: 500 μM) and after culturing for 30 minutes, a test compound dissolved in dimethylsulfoxide was added followed by allowing to stand undisturbed in a carbon dioxide incubator. After 30 minutes, the amount of cAMP in the cells was measured with a cAMP Biotrak EIA System kit (available from GE Healthcare Biosciences). The concentration of test compound required to increase the amount of cAMP to 50% of the maximum increase (EC50 value) was calculated by non-linear regression of the test compound concentration and amount of cAMP using EXSAS.

Assay [3] deals with T1, human EP2 receptor. Briefly: Measurement of EP2 receptor binding action. The settings on record: membrane fraction of HEK293 cells expressing human EP2 receptor; [3H]prostaglandin 10 nM; Ki calculated from IC50. On the procedure:
Measurement of EP2 receptor binding action was carried out in compliance with the method of Abramovitz et al. (Biochimica et Biophysica Acta, 1483, 285 (2000)). A test compound dissolved in dimethylsulfoxide and [^3H]prostaglandin […] (NET-428, PerkinElmer) (final concentration: 10 nM) were added to a buffer solution (10 mM MES-KOH (pH 6.0), 10 mM MgCl2, 1 mM EDTA) in which was suspended 10 μg of a membrane fraction of HEK293 cells expressing human EP2 receptor (ES-562-M, available from Euroscreen) followed by incubating at 30° C. for 60 minutes. The membrane fraction was recovered on glass fiber filter paper (GF/B, Whatmann) using a cell harvester (M30R, Brandel), and after washing with buffer solution (10 mM MES-KOH (pH 6.0), 10 mM MgCl2), radioactivity was measured with a liquid scintillation analyzer (2000CA, Packard).
Ki=IC50/(1+([^3H]prostaglandin E2 concentration/Kd))
The dissociation constant (Kd value) was calculated by Scatchard analysis.

The term EC50 denotes the concentration needed to bring the measured effect to its halfway point. The low end stands for an effect from little substance, the high end for a need for much substance. As usually defined, the Ki is the equilibrium dissociation constant of an inhibitor or competing ligand from its target.

T1 sequence (P43116 whole entry): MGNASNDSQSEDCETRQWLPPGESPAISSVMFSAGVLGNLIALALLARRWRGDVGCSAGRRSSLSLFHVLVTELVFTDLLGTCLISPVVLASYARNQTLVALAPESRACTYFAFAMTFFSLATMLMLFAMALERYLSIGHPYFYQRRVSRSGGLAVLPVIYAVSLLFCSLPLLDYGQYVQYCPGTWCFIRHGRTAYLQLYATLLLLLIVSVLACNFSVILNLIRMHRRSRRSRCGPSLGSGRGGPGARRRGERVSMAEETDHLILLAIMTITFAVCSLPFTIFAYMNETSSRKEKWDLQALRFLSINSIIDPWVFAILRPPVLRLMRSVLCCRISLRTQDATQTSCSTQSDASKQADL

Consider `CC[N+](C)(CC)c1ccc(CN(Cc2cccc(NCC(=O)O)n2)S(=O)(=O)c2cccnc2)cc1` [Example 4, [6-({4-[Diethyl(methyl)ammonio]benzyl}(pyridin-3-ylsulfonyl)aminomethyl)pyridin-2-ylamino]acetic acid hydrochloride], for which the inhibition at 10 µM in assay [1] (test compound concentration 10 μM, contraction by electrical field stimulation) came out at 81%.

With `CNc1ccc(CN(Cc2cccc(NCC(=O)O)n2)S(=O)(=O)c2cccnc2)cc1` [Example 1, {6-[(4-Methylaminobenzyl) (pyridin-3-ylsulfonyl)aminomethyl]pyridin-2-ylamino}-acetic acid], in assay [1], the inhibition at 10 µM came out at 95%.

Regarding `CCCCN(C)c1ccc(CN(Cc2cccc(NCC(=O)O)n2)S(=O)(=O)c2ccccn2)cc1` [Example 7, [6-({4-[Butyl(methyl)amino]benzyl}(pyridin-2-ylsulfonyl)aminomethyl)pyridin-2-ylamino]acetic acid], the EC50 on human EP2 receptor [2] came to 1.2 nM. In assay [1], the inhibition at 0.03 µM is 84%. In addition, the inhibitory constant (Ki) at human EP2 receptor [3] was 10 nM.

In the case of `CN(Cc1ccccc1)c1ccc(CN(Cc2cccc(NCC(=O)O)n2)S(=O)(=O)c2cccnc2)cc1` [Example 6, [6-({4-[Benzyl(methyl)amino]benzyl}(pyridin-3-ylsulfonyl)aminomethyl)pyridin-2-ylamino]acetic acid], in assay [1], the inhibition at 10 µM was determined as 94%.

`CCCS(=O)(=O)N(C)c1ccc(CN(Cc2cccc(NCC(=O)O)n2)S(=O)(=O)c2cccnc2)cc1` [Example 2, [6-({4-[Methyl(propylsulfonyl)amino]benzyl}(pyridin-3-ylsulfonyl)aminomethyl)pyridin-2-ylamino]acetic acid]: the inhibition at 10 µM in assay [1] was 86%.

`CCCC(=O)N(C)c1ccc(CN(Cc2cccc(NCC(=O)O)n2)S(=O)(=O)c2cccnc2)cc1` [Example 5, [6-({4-[Butyryl(methyl)amino]benzyl}(pyridin-3-ylsulfonyl)aminomethyl)pyridin-2-ylamino]acetic acid]: the inhibition at 10 µM in assay [1] worked out at 92%.
